Measured values published in patent US8846914B2, “Compositions to effect neuronal growth” (Neuralstem, Inc., priority 2003, dated 2014).
Read-outs that look alike come from different tables or passages of the source.

How the values were obtained:
[1] = tested on: human hippocampal stem cells; experiment: Cell proliferation, Alamar Blue staining of live cells; format: cell-based; conditions: seven days of compound treatment; relative to vehicle control
Protocol: FIG. 1 is a bar graph illustrating an example of a proliferation profile of compounds selected from primary screening. Proliferation is measured after compound treatment for seven days by Alamar Blue staining of live cells per well. Shown are relative values over the vehicle control.
Neural stem cells and progenitor cells differentiate spontaneously in the absence of a mitogen; therefore, undifferentiated mitotic cells are harvested by enzyme treatment to remove residual mitogen, such as basic fibroblast growth factor (bFGF) used in expansion and proliferation of the cells. In one embodiment of the present invention, undifferentiated human hippocampal stem cells (e.g., HH580)/progenitor cells are harvested by enzyme treatment.
The collected cells are seeded for attachment of the cells such as standard 96-well or 384-well plates, pre-coated with extracellular matrix proteins, such as poly-D-lysine and fibronectin (e.g., Biocoat PDL, Fisher). The initial seeding density can be within the range of about 2,000-125,000 cells per well of a 96-well plate. The preferred density, however, is 40,000 cells per well of a 96-well plate which has been optimized for best signal-to-noise ratio as described in pending U.S. patent application Ser. No. 10/728,652. Cell density that is too low retards the initiation of differentiation and results in poor plating efficiency which interferes with the assay. Cell density that is too high leads to inhibition of neurogenesis due to cell-to-cell interaction and paracrine factors which also interfere with the assay. […] For example, for a 384-well plate which has approximately one-fourth of the surface area of a 96-well plate, the initial seeding density should be decreased by one-fourth accordingly.
The cells are passaged and grown for seven days in 15 cm plates in full growth medium according to Neuralstem protocol with 50% of the media changed every other day. Following centrifugation, the call pellet is re-suspended in N2b medium and enough N2b medium is added to the cell suspension to achieve a concentration of […]. The N2b seeding media includes a standard serum-free, growth factor-free, basal media without phenol red that supports healthy neuronal/glial survival. Fibronectin and PBS is completely removed by aspiration from wells of fibronectin-coated 96-well plate(s). 100 μl of N2b medium with or without 2× concentration of screening agents or compounds to be tested are added to each well. Subsequently, 100 μl of the cell suspension is added to each well at a density of 40,000 cells per well. The cell suspension is incubated for two days at 37° C. in the presence of 5% CO2.
On Days 2, 4, and 6 of post-plating, incremental additions of the compounds are made to each well at appropriate concentrations. Therefore, after two days, 100 μl of N2b medium is removed from the wells, and 100 μl of the N2b medium is added. Likewise, on days four and six, 100 μl of N2b medium is removed from the wells and 100 μl of the N2b medium is added, and the cell suspension is again incubated at 37° C. in the presence of 5% CO2.
On day seven, the final day of the culture, a fluorescent dye such as Alamar Blue dye is added to each well. Alamar Blue dye detects metabolic respiration and is a reflection of total cellular activity indicating changes in cell number of neurons. In this regard, 20 μl of Alamar Blue (Biosource International DAL 1025) is added to each well and incubated for two hours at 37° C. in the presence of 5% CO2.
As a preliminary detection of positive activities, the overall immunostaining intensity in each well is read by a fluorescence plate reader. For instance, the fluorescence of the oxidized dye in each well is read by a fluorescent plate reader such as the Molecular Devices Fluorometric Plate Reader. The reader is set on the Read Mode End Point setting at an excitation of 530 nm, an emission of 590 nm, and a cutoff 570 nm. […]

[2] = tested on: Differentiating hippocampal human stem cells; experiment: Long-term treatment in vitro neurogenesis; format: cell-based; conditions: for activity at 10 µM: Homo sapiens, 504 h, three weeks, 5× with 10 μM, compared to the control; for Further increase in neuron numbers over long-term treatment: FIG. 11, compared to one week of treatment
Protocol: FIG. 11 is a bar graph illustrating an example of in vitro neurogenesis profile of the compounds for a long-term treatment. Differentiating hippocampal human stem cells mere treated with vehicle alone or with the test compounds for three weeks. Increase in cell number was determined compared to the control. Shown are several examples that are effective in continued neurogenesis. Bars represent mean+/−SD from six wells.
In another in vitro assay, compounds of the fused imidazole, iminopyrimidine, nicotinamide, aminomethyl phenoxypiperidine and aryloxypiperidine types are evaluated for their effect on the differentiation of the culture-born cells to mature neurons. More particularly, multipotent human hippocampal stem cells are treated in three doses over a one-week period in N2b media and in the presence of an agent of the type mentioned above. The cells are then fed twice weekly for approximately two more weeks in N2b or Neuralbasal+B27 Media (Gibco) and then cells are fixed using 4% paraformaldehyde. Cells are washed 3× with PBS (pH 7.4) and then stained using a nuclear stain (Hoechst or DAPI) and a mature neuronal marker, MAP-2ab (AP-20) antibody. A secondary antibody, Alexa Fluor 488 labeled goat anti-mouse IgG, is used to identify by fluorescent labeling the mature neurons. The fluorescent intensity and number of cells labeled in a multi-plate format can be measured using for instance a Array Scan II (Cellomics) or similar instrumentation.
Effects of the long-term NSI compound treatment on human hippocampal stem cells in the absence of mitogen is illustrated in FIG. 11. In FIG. 11, differentiating hippocampal human stem cells are treated with vehicle alone or with the test compounds for three weeks. Increase in cell number was determined compared to the control. Bars represent mean+/−SD from six wells. […] Several examples of NSI compounds are shown to be effective in continued neurogenesis. […] These agents comprise a class of compounds, aminopyrimidines, that, as shown previously, inhibited apoptosis. Accordingly, the aminopyrimidine class of compounds appear ideally suited for neurodegenerative long-term diseases including Alzheimer's disease and aging. Neurogenic agents that are neuroprotective like the sixteen compounds identified above might also be effective therapeutics for other neurodegenerative diseases in mammals including, but not limited to, stroke, traumatic brain injury, Parkinson's disease, and mild cognitive impairment.

[3] = read-out: Long Term Treatment #Neur
[4] = read-out: Long Term Treatment Neur Ratio
[5] = read-out: Long Term Treatment Prolif

With CCCCNc1c(C2CCN(C(=O)CN(CC(C)C)S(C)(=O)=O)CC2)nc2cnccn12 [NSI-106] as the compound, how does the “% Prolif (Alamar)” value [1] read?
The value was 211 ± 48%.

What about the activity at 10 µM [2, 3] of the same compound?
Its activity at 10 µM is 137 ± 8%.

What about the activity at 10 µM [2, 4] of the same compound?
Its activity at 10 µM is 120 ± 5%.

And the activity at 10 µM [2, 5]?
Its activity at 10 µM is 92 ± 3%.

CS(=O)(=O)N1CCCCC1C(=O)NCc1ccc(Nc2c(C3CC3)nc3ccccn23)cc1 (stereo not drawn) [NSI-127] was tested. Which “% Prolif (Alamar)” value [1] did it give?
The value was 181 ± 14%.

What about the activity at 10 µM [2, 3] of the same compound?
Its activity at 10 µM is 135 ± 21%.

What about the activity at 10 µM [2, 4] of the same compound?
Its activity at 10 µM is 131 ± 15%.

And the activity at 10 µM [2, 5]?
The activity at 10 µM was 103 ± 8%.

What does the source list for COc1ccc(CCNc2ncc(C(N)=O)c(NC3CC3)n2)cc1OC [NSI-130]?
% Prolif (Alamar) [1]: 92 ± 33%; Further increase in neuron numbers over long-term treatment [2]: effective in stimulating further increases in neuron numbers; activity at 10 µM [2, 3]: 128 ± 30%; activity at 10 µM [2, 4]: 92 ± 12%; activity at 10 µM [2, 5]: 115 ± 11%

Which “% Prolif (Alamar)” value [1] does the source give for CCCNc1ncc(C(N)=O)c(NC2CCCC2)n1 [NSI-137] here?
Its value is 108 ± 28%.

And the activity at 10 µM [2, 3]?
The activity at 10 µM was 139 ± 35%.

And the activity at 10 µM [2, 4]?
Its activity at 10 µM is 98 ± 18%.

What about the activity at 10 µM [2, 5] of the same compound?
Its activity at 10 µM is 111 ± 10%.

O=C(c1cccnc1N1CCNCC1)N1CCN(Cc2ccncc2)CC1 [NSI-142] was tested. Which “% Prolif (Alamar)” value [1] did it give?
The value was 115 ± 13%.

And the activity at 10 µM [2, 3]?
The activity at 10 µM was 146 ± 34%.

What about the activity at 10 µM [2, 4] of the same compound?
Its activity at 10 µM is 120 ± 21%.

And the activity at 10 µM [2, 5]?
The activity at 10 µM was 105 ± 26%.

How did the “% Prolif (Alamar)” value [1] turn out when O=C(NC1CCN(Cc2ccccc2)CC1)c1cccnc1N1CCNCC1 [NSI-143] was run?
Its value is 97 ± 16%.

And the activity at 10 µM [2, 3]?
Its activity at 10 µM is 102 ± 14%.

And the activity at 10 µM [2, 4]?
The activity at 10 µM was 103 ± 12%.

And the activity at 10 µM [2, 5]?
The activity at 10 µM was 153 ± 33%.

How did the “% Prolif (Alamar)” value [1] turn out when NC(=O)c1cnc(NCc2ccc(Cl)cc2)nc1NCC1CCCCC1 [NSI-144] was run?
The value was 149 ± 15%.

What about the “Further increase in neuron numbers over long-term treatment” value [2] of the same compound?
Its value is “effective in stimulating further increases in neuron numbers”.

And the activity at 10 µM [2, 3]?
Its activity at 10 µM is 170 ± 46%.

What about the activity at 10 µM [2, 4] of the same compound?
Its activity at 10 µM is 123 ± 12%.

What about the activity at 10 µM [2, 5] of the same compound?
The activity at 10 µM was 97 ± 21%.

Which “% Prolif (Alamar)” value [1] does the source give for CCCCNc1c(C2CCN(C(=O)c3ccc(C#N)cc3)CC2)nc2ccccn12 [NSI-149] here?
Its value is 216 ± 28%.

And the activity at 10 µM [2, 3]?
Its activity at 10 µM is 171 ± 19%.

And the activity at 10 µM [2, 4]?
The activity at 10 µM was 143 ± 11%.

And the activity at 10 µM [2, 5]?
The activity at 10 µM was 89 ± 13%.

Which “% Prolif (Alamar)” value [1] does the source give for C=CCNC(=O)c1cccnc1NCc1ccccc1OC [NSI-150] here?
Its value is 177 ± 44%.

What about the activity at 10 µM [2, 3] of the same compound?
Its activity at 10 µM is 120 ± 10%.

What about the activity at 10 µM [2, 4] of the same compound?
The activity at 10 µM was 105 ± 7%.

And the activity at 10 µM [2, 5]?
The activity at 10 µM was 110 ± 25%.

With CC(C)(C)OC(=O)NCCNC(=O)c1cccnc1NCC1CCCCC1 [NSI-157] as the compound, how does the “% Prolif (Alamar)” value [1] read?
The value was 218 ± 140%.

And the activity at 10 µM [2, 3]?
The activity at 10 µM was 139 ± 43%.

And the activity at 10 µM [2, 4]?
Its activity at 10 µM is 107 ± 22%.

And the activity at 10 µM [2, 5]?
The activity at 10 µM was 146 ± 19%.

What does the source list for NC(=O)C1CCCN1C(=O)c1cccnc1NCC1CCCCC1 (stereo not drawn) [NSI-158]?
% Prolif (Alamar) [1]: 236 ± 79%; activity at 10 µM [2, 3]: 141 ± 24%; activity at 10 µM [2, 4]: 114 ± 14%; activity at 10 µM [2, 5]: 99 ± 6%

What does the source list for O=C(NCc1nc2ccccn2c1NCC1CCCO1)Oc1ccccc1 (stereo not drawn) [NSI-182]?
% Prolif (Alamar) [1]: 74 ± 8%; activity at 10 µM [2, 3]: 121 ± 13%; activity at 10 µM [2, 4]: 111 ± 13%; activity at 10 µM [2, 5]: 95 ± 6%

For O=C(COc1ccccc1)NCc1nc2ccccn2c1NCC1CCCO1 (stereo not drawn) [NSI-183], which “% Prolif (Alamar)” value [1] is on record?
Its value is 69 ± 18%.

What about the activity at 10 µM [2, 3] of the same compound?
Its activity at 10 µM is 148 ± 30%.

What about the activity at 10 µM [2, 4] of the same compound?
The activity at 10 µM was 111 ± 16%.

And the activity at 10 µM [2, 5]?
Its activity at 10 µM is 99 ± 19%.

CS(=O)(=O)N(CC(=O)NCc1nc2ccccn2c1NCc1ccccc1)c1ccccc1 [NSI-185] was tested. Which “% Prolif (Alamar)” value [1] did it give?
The value was 73 ± 26%.

What about the activity at 10 µM [2, 3] of the same compound?
Its activity at 10 µM is 155 ± 30%.

And the activity at 10 µM [2, 4]?
Its activity at 10 µM is 105 ± 19%.

And the activity at 10 µM [2, 5]?
Its activity at 10 µM is 83 ± 25%.

Which results are given for CC(C)CCNc1ncccc1C(=O)N1CCN(Cc2ccccc2)CC1 [NSI-189]?
% Prolif (Alamar) [1]: 70 ± 21%; activity at 10 µM [2, 3]: 110 ± 26%; activity at 10 µM [2, 4]: 96 ± 19%; activity at 10 µM [2, 5]: 144 ± 17%

Which results are given for CCN(CCNC(=O)c1cccnc1NCCC(C)C)Cc1cccnc1 [NSI-190]?
% Prolif (Alamar) [1]: 76 ± 14%; activity at 10 µM [2, 3]: 121 ± 19%; activity at 10 µM [2, 4]: 100 ± 12%; activity at 10 µM [2, 5]: 98 ± 11%
